Values belong to the molecule of their own block, whether it stands above or below them.
Experiments:
[1] = target: T1, urate transporter 1 (URAT1) (Homo sapiens, UniProt Q96S37); assay: non-isotopic uric acid uptake inhibition in URAT1-overexpressing HEK293 cells; type: cell-based
T1 construct: gene SLC22A12
T1 sequence (Q96S37 1-553): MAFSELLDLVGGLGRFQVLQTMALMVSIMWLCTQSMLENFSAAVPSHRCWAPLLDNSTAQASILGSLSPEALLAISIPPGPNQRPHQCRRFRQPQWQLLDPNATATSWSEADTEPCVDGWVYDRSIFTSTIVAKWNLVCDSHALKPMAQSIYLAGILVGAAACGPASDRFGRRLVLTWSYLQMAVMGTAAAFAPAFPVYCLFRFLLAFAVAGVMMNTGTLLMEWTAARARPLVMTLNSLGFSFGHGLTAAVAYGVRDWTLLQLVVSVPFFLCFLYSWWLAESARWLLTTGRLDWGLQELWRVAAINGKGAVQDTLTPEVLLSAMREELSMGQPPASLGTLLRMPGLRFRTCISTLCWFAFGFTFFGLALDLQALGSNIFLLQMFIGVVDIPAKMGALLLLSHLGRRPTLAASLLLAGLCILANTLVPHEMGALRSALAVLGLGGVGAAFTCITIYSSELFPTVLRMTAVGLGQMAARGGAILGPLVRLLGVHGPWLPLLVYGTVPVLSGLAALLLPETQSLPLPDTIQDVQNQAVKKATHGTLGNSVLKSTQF

[2] = target: T1, urate transporter 1 (URAT1); assay: non-isotopic uric acid uptake inhibition in URAT1-overexpressing HEK293 cells (positive control drug); type: cell-based
[3] = target: T2, xanthine oxidoreductase (XOR) (Bos taurus, UniProt P80457)
T2 construct: gene XDH
T2 sequence (P80457 2-1332): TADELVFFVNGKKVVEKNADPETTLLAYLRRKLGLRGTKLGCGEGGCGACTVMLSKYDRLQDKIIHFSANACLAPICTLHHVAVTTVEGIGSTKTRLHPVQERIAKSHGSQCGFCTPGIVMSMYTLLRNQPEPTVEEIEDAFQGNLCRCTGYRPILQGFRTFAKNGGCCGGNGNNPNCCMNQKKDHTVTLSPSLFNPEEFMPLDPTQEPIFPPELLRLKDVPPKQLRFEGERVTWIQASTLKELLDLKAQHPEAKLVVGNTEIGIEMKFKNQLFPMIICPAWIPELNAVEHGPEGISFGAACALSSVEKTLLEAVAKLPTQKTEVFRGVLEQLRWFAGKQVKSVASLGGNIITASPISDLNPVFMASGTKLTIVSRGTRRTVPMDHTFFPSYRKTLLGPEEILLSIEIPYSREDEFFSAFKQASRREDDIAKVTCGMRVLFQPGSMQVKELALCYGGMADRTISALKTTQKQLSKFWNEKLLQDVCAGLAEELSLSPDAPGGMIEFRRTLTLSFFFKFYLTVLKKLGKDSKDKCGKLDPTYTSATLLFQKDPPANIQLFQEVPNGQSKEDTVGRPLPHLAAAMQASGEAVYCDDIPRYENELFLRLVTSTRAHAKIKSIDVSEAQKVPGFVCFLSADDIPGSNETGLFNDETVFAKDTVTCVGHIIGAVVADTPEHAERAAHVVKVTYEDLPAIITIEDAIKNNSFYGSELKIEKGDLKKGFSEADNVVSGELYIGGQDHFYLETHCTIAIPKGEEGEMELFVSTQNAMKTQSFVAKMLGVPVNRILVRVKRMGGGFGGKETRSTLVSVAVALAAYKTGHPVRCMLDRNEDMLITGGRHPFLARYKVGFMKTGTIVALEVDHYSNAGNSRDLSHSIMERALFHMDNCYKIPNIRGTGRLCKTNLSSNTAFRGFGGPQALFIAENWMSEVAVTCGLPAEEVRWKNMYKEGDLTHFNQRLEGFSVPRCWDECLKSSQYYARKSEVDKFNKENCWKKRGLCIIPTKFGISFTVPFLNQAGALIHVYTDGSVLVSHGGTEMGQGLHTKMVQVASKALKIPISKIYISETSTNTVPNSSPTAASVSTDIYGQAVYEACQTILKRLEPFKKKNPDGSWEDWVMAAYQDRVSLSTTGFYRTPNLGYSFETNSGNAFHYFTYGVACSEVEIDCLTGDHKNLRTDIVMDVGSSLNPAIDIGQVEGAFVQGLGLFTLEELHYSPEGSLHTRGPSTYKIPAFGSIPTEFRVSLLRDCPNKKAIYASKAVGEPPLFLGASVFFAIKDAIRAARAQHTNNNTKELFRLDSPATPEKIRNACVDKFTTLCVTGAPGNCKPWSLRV

IC50 [1]: 1690 nM
Structure (SMILES): O=C(O)C1(Sc2ccccc2N2CCOc3ccccc32)CCC1 [CC18002]

IC50 [2]: 130 nM
Structure (SMILES): O=C(O)C1(Sc2ccnc3ccc(Br)cc23)CCC1 [SHR4640]

Structure (SMILES): Cc1nc(-c2ccc(OCC(C)C)c(C#N)c2)sc1C(=O)O [febuxostat]
% inhibition at 0.1 μM [3]: 94.8
